From patent publication US8865686B2, “Tetracycline compounds as tyrosyl-DNA phosphodiesterase I inhibitors” (The United States of America, as Represented by the …, priority 2006, dated 2014)

How the values were obtained:
[1] = molecular target: T1, Recombinant Tdp1 (Homo sapiens (Human), UniProt Q9NUW8); experiment: AlphaScreen Tdp1 assay (qHTS, FITC/biotin phosphotyrosine DNA substrate); assay type: biochemical
Description: Tween-20, KCl, fluorescein isothiocyanate (FITC), and PBS were procured from Sigma-Aldrich. DMSO certified ACS grade was obtained from Fisher. The AlphaScreen FITC/streptavidin detection kit was from PerkinElmer Life and Analytical Sciences (Waltham, Mass.). Assay buffer consisted of PBS, pH 7.4, 80 mM KCl and 0.05% Tween-20. Recombinant Tdp1 was expressed and purified as described elsewhere (Antony et al., Nucleic Acids Research 35:4474-4484 (2007). The Sigma-Aldrich LOPAC^1280 library of 1280 known bioactives was received as DMSO solutions at initial concentration of 10 mM and plated as described elsewhere (Inglese et al., Proc. Natl. Acad. Sci. USA 103:11473-11478 (2006); Yasgar et al., J. Assoc. Lab. Automat. 13:78-89 (2008)).
The biotinylated phosphotyrosine deoxyoligonucleotide (5′ biotin-[…]-pY) was synthesized, purified, and QC-tested by Midland Certified Reagent Company, Midland, Tex. Standard overnight 4° C. FITC coupling was performed in-house. The FITC-labeled substrate was purified on Biospin-6 desalting columns (Bio-Rad, Hercules, Calif.) and its concentration was determined by UV-vis spectrophotometry.
Assay reaction mixtures and substrate/beads titrations were initially performed at 20 μl final volume in 384-well plates. For the subsequent 1,536-well based experiments, Flying Reagent Dispenser (FRD, Aurora Discovery, presently Beckman-Coulter) was used to dispense reagents into the assay plates, while a pintool was used to deliver DMSO solutions of the test inhibitors. Plates were read on Envision plate reader (PerkinElmer) equipped with AlphaScreen optical detection module. For testing the effect of enzyme reaction conditions on the IC50 values for select inhibitors, the respective compounds were prepared as 24-point twofold intra-plate dilution series and assayed as described.
Three μl of reagents (buffer in columns 3 and 4 as negative control and 1.33 nM Tdp1 in columns 1, 2, 5-48) were dispensed into 1,536-well black solid bottom plate. Compounds (final concentrations in the range of 0.7 nM to 57 μM) were transferred via Kalypsys pintool equipped with 1,536-pin array. The plate was incubated for 15 min at room temperature, and then 1 μl of substrate (15 nM final concentration) was added to start the reaction. After 5 min incubation at room temperature, 1 μl of bead mix (15 μg/mL final concentration) was added and the plate was further incubated for 10 min at room temperature prior to signal measurement. Substrate and beads were prepared and kept in amber bottles to prevent photo-degradation. Library plates were screened starting from the lowest and proceeding to the highest concentration. Vehicle-only plates, with DMSO being pin-transferred to the entire column 5-48 compound area, were included at the beginning and the end of the screen in order to record any systematic shifts in assay signal. Screening data were corrected, normalized, and curve-fitted by using in-house developed algorithms.
To configure an assay for Tdp1, we utilized the ability of the AlphaScreen system to report on the integrity of the phosphotyrosine-based substrate, viewed here as a multi-site analyte. The AlphaScreen signal is a direct consequence of the close proximity of donor and acceptor beads, which is achieved by the formation of a ternary donor-analyte-acceptor recognition complex. To realize the AlphaScreen assay using the consensus DNA-pY substrate for Tdp1, 5′[…]pY, recognition elements for both bead types had to be introduced. To this end, we coupled a fluorescein isothiocyanate (FITC) to the amino group of tyrosine in a phosphotyrosine-containing single stranded DNA substrate bearing a biotin at its 5′ end. […] Conversely, if the Tdp1 catalysis was inhibited, an elevated signal would be observed for that sample.

[2] = molecular target: T1, Recombinant Tdp1; experiment: Secondary radiolabel gel-based Tdp1 assay (N14Y substrate); assay type: biochemical
Description: One nanomolar of 5′-^32P-labeled substrate (N14Y; 5′-[…]-Tyrosine-3′) was incubated with 0.1 nM recombinant Tdp1 in the absence or presence of inhibitor for 20 min at 25° C. in a reaction buffer containing 50 mM Tris-HCl (pH 7.5), 80 mM KCl, 2 mM EDTA, and 40 μg/ml BSA. Reactions were terminated by the addition of one volume of gel loading buffer (96% (v/v) formamide, 10 mM EDTA, 1% (w/v) xylene cyanol and 1% (w/v) bromphenol blue). The samples were subsequently heated to 95° C. for 5 min and subjected to 20% denaturing PAGE. When the Tdp1 mutant H493R (100 nM) was employed, the reactions were stopped with one volume of SDS loading dye and analyzed by 4-20% SDS-PAGE. All gels were dried and exposed on a PhosphorImager screen. Imaging and quantification were done using a Typhoon 8600 and ImageQuant software (GE Healthcare, Piscataway, N.J.).
Activity of certain compounds was also tested in secondary radiolabel gel-based assays (Inamdar et al., J. Biol. Chem. 277:27162-27168 (2002); Davies et al., J. Mol. Biol. 324:917-932 (2002)).

[3] = 1,536-well AlphaScreen qHTS, N/D = not detectable, read-out: Activity (qHTS) IC50
[4] = 1 nM N14Y, 0.1 nM Tdp1, 20 min at 25° C., N/D = not detectable, read-out: Activity (Gel)

T1 sequence (Q9NUW8 whole entry): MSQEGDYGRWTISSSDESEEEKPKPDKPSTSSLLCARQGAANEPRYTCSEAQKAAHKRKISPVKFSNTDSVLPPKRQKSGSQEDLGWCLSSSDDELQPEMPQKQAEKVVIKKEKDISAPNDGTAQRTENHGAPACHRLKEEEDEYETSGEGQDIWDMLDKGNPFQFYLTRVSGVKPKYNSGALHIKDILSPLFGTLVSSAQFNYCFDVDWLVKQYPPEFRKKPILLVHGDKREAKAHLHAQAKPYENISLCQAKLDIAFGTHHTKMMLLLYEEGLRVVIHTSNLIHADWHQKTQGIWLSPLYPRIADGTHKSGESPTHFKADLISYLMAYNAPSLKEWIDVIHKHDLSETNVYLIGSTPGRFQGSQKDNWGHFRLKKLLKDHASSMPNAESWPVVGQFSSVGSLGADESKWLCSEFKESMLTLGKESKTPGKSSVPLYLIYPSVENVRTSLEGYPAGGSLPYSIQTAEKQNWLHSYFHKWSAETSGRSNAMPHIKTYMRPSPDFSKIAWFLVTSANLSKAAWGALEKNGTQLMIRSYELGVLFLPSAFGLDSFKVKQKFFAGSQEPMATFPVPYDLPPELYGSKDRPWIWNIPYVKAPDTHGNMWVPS

IC50 [1, 3] [µM] | IC50 [2, 4] [µM] | Compound | further results
3.16 | 20 | CN(C)C1C(O)=C(C(N)=O)C(=O)[C@@]2(O)C(O)=C3C(=O)c4c(O)ccc(Cl)c4[C@](C)(O)C3CC12 (some centres unmarked) | –
4.47 | 3 | CN(C)C1C(O)=C(C(N)=O)C(=O)[C@@]2(O)C(O)=C3C(=O)c4c(O)cccc4[C@@](C)(O)C3[C@H](O)C12 (some centres unmarked) | –
2.82 | 13.2 | CN(C)[C@@H]1C(O)=C(C(N)=O)C(=O)[C@]2(O)C(O)=C3C(=O)c4c(O)ccc(Cl)c4[C@](C)(O)[C@H]3C[C@@H]12 | –
1.59 | – | CN(C)[C@@H]1C(O)=C(C(N)=O)C(=O)[C@]2(O)C(O)=C3C(=O)c4c(O)cccc4[C@@](C)(O)[C@H]3[C@H](O)[C@@H]12 | –
0.5 | – | CN(C)[C@@H]1C(O)=C(C(N)=O)C(=O)[C@@]2(O)C(O)=C3C(=O)c4c(O)cccc4[C@@](C)(O)[C@H]3[C@H](O)[C@@H]12 | –
0.63 | 8 | CN(C)C1C(O)=C(C(N)=O)C(=O)[C@@]2(O)C(O)=C3C(=O)c4c(O)cccc4[C@](C)(O)C3C(O)C12 (some centres unmarked) | –
3.16 | 10 | CN(C)C1C(O)=C(C(N)=O)C(=O)[C@]2(O)C(O)=C3C(=O)c4c(O)cccc4[C@](C)(O)C3C(O)C12 (some centres unmarked) | –

Further lines, the molecule ahead of its results:

Compound | IC50 [1, 3] [µM] | IC50 [2, 4] [µM] | further results
CN(C)[C@@H]1C(O)=C(C(=O)NCN2CCCC2)C(=O)[C@@]2(O)C(O)=C3C(=O)c4c(O)cccc4[C@@](C)(O)C3CC12 (some centres unmarked) | 0.71 | – | –
CN(C)[C@H]1C(O)=C(C(=O)NCN2CCCC2)C(=O)[C@]2(O)C(O)=C3C(=O)c4c(O)cccc4[C@@](C)(O)[C@H]3C[C@@H]12 | 1.26 | 30.2 | –
CN(C)C1C(O)=C(C(N)=O)C(=O)[C@@]2(O)C(O)=C3C(=O)c4c(O)cccc4[C@@](C)(O)C3CC12.Cl (some centres unmarked) | – | – | Activity (qHTS) IC50 ([1]; 1,536-well AlphaScreen qHTS, N/D = not detectable): IC50: N/D
CN(C)C1C(=O)C(C(N)=O)C(=O)C2(O)C(=O)C3C(=O)c4c(O)cccc4C(C)(O)C3C(O)C12 (centres unmarked) | – | – | IC50 [1]: 0.2 µM; IC50 [2]: 5 µM
[O]=[V]([O-])([O-])[O-] [vanadate, reference compound] | – | – | Tdp1 inhibition potency range ([1]; AlphaScreen assay set-up in 384-well plates): sub-millimolar
CN(C)[C@H]1C(O)=C(C(=O)NCN[C@@H](CCCCN)C(=O)O)C(=O)[C@]2(O)C(O)=C3C(=O)c4c(O)cccc4[C@@](C)(O)[C@H]3C[C@@H]12 | 12.6 | – | –
CN(C)[C@H]1C(O)=C(C(=O)NCN2CCCC2)C(=O)[C@]2(O)C(O)=C3C(=O)c4c(O)cccc4[C@](C)(O)[C@H]3C[C@H]12 | 0.2 | – | IC50 ([2]; 1 nM N14Y, 0.1 nM Tdp1, value printed with question mark, read-out: Activity (Gel)): < 0.1 µM
CN(C)[C@H]1C(O)=C(C(N)=O)C(=O)[C@]2(O)C(O)=C3C(=O)c4c(O)cccc4[C@@](C)(O)[C@H]3C[C@@H]12 | 14.1 | 10 | –
CN(C)[C@@H]1C(=O)C(C(N)=O)=C(O)[C@@]2(O)C(O)=C3C(=O)c4c(O)cccc4[C@@](C)(O)[C@H]3[C@H](O)[C@@H]12 | – | – | IC50 [1]: 0.4 µM
CN(C)C1C(O)=C(C(N)=O)C(=O)[C@@]2(O)C(O)=C3C(=O)c4c(O)cccc4[C@@](C)(O)C3C[C@@H]12 (some centres unmarked) | 10 | – | –
